Drawing on patent publication US10865208B2, “ATG7 inhibitors and the uses thereof” (Millennium Pharmaceuticals, Inc., priority 2016, dated 2020), this text covers IC50 and inhibition for 22 compounds.

For this experiment, the target named is recombinant human His-ATG7 enzyme (Homo sapiens (Human), UniProt O95352). Description: ATG7 Enzyme Assay (HTRF/FRET, ATG3-GST and Flag-Gabarap). To be noted: for inhibition at 0.111 µM: Concentration 0.111 μM; for inhibition at 0.111 µM / inhibition at 0.123 µM: read-out: Percent Inhibition; for inhibition at 0.123 µM: Concentration 0.123 μM. The class given is biochemical. In a few lines:
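0.15 nM His-ATG7 was reacted with 5 nM ATG3-GST, 5 nM Flag-Gabarap and 10 μM ATP in HEPES pH 7.5 containing MgCl2, GSH and TCEP for 105 min at 24° C, then stopped with EDTA/KF. Eu-anti-Flag and anti-GST-APC HTRF was read after 2 h. Results are given as single-concentration % inhibition or IC50.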

Where only a bound is given, the exact number is not on record here.

recombinant human His-ATG7 enzyme, sequence (O95352 whole entry): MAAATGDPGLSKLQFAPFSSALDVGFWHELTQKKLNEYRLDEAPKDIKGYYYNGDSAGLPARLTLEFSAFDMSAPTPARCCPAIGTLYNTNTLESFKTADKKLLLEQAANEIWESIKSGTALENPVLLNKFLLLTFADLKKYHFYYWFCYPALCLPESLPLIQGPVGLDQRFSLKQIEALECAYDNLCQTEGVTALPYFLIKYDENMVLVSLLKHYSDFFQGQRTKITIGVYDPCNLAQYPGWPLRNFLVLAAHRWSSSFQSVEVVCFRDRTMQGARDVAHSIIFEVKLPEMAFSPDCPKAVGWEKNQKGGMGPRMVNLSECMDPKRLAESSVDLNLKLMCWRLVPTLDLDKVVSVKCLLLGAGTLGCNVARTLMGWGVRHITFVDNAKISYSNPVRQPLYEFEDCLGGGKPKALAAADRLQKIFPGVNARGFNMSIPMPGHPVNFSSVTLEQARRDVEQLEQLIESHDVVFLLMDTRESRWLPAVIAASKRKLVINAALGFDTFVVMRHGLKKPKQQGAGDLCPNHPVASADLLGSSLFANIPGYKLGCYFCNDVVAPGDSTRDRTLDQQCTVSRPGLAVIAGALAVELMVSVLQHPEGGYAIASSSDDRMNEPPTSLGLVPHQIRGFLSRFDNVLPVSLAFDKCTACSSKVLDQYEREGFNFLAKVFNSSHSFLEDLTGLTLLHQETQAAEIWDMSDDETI

In general, IC50 refers to the concentration at which inhibition is half-maximal. Usually inhibition stands for the change of the read-out against control, counted positive when it falls. With `CSc1nn([C@@H]2O[C@@H](COS(N)(=O)=O)[C@@H](O)[C@@H]2F)c2ncnc(N)c12` [Compound I-96, {(2S,3R,4S,5R)-5-[4-amino-3-(methylsulfanyl)-1H-pyrazolo[3,4-d]pyrimidin-1-yl]-4-fluoro-3-hydroxytetrahydrofuran-2-yl}methyl Sulfamate], the IC50 lay in the range of 100 to 500 nM and the inhibition at 0.111 µM was 44%.
As for `Nc1ncnc2c1c(SCC1CC(F)(F)C1)nn2[C@@H]1O[C@H](COS(N)(=O)=O)[C@@H](O)[C@@H]1F` [Compound I-97, [(2R,3R,4S,5R)-5-(4-amino-3-{[(3,3-difluorocyclobutyl)methyl]sulfanyl}-1H-pyrazolo[3,4-d]pyrimidin-1-yl)-4-fluoro-3-hydroxytetrahydrofuran-2-yl]methyl sulfamate], the IC50 fell in the range of 20 to 50 nM and the inhibition at 0.111 µM is 66%.
Turning to `Nc1ncnc2c1c(SC(F)F)nn2[C@@H]1O[C@H](COS(N)(=O)=O)[C@@H](O)[C@@H]1F` [Compound I-98, [(2R,3R,4S,5R)-5-{4-amino-3-[(difluoromethyl)sulfanyl]-1H-pyrazolo[3,4-d]pyrimidin-1-yl}-4-fluoro-3-hydroxytetrahydrofuran-2-yl]methyl sulfamate], the IC50 lay within 20 to 50 nM and the inhibition at 0.111 µM was 77%.
For the compound `Nc1ncnc2c1c(OC(F)F)nn2[C@@H]1O[C@H](COS(N)(=O)=O)[C@@H](O)[C@@H]1F` [Compound I-99, {(2R,3R,4S,5R)-5-[4-amino-3-(difluoromethoxy)-1H-pyrazolo[3,4-d]pyrimidin-1-yl]-4-fluoro-3-hydroxytetrahydrofuran-2-yl}methyl Sulfamate], the IC50 lay within 20 to 50 nM and the inhibition at 0.111 µM was 70%.
The like results for `Cc1occc1Sc1nn([C@@H]2O[C@H](COS(N)(=O)=O)[C@@H](O)[C@@H]2F)c2ncnc(N)c12` [Compound I-100, [(2R,3R,4S,5R)-5-{4-amino-3-[(2-methyl-3-furyl)sulfanyl]-1H-pyrazolo[3,4-d]pyrimidin-1-yl}-4-fluoro-3-hydroxytetrahydrofuran-2-yl]methyl sulfamate] were, in that order, 100 to 500 nM and 50%.
Regarding `Cc1cccc(Sc2nn([C@@H]3O[C@H](COS(N)(=O)=O)[C@@H](O)[C@@H]3F)c3ncnc(N)c23)n1` [Compound I-102, [(2R,3R,4S,5R)-5-{4-amino-3-[(6-methylpyridin-2-yl)sulfanyl]-1H-pyrazolo[3,4-d]pyrimidin-1-yl}-4-fluoro-3-hydroxytetrahydrofuran-2-yl]methyl sulfamate], the IC50 lay in the range of 50 to 100 nM and the inhibition at 0.111 µM is 68%.
`Nc1ncnc2c1c(SC1CCCC1)nn2[C@@H]1O[C@H](COS(N)(=O)=O)[C@@H](O)[C@@H]1F` [Compound I-103, {(2R,3R,4S,5R)-5-[4-amino-3-(cyclopentylsulfanyl)-1H-pyrazolo[3,4-d]pyrimidin-1-yl]-4-fluoro-3-hydroxytetrahydrofuran-2-yl}methyl sulfamate]: the half-inhibitory concentration (IC50) was below 20 nM and the inhibition at 0.111 µM was found to be 84%.
In the case of `CCN(CC)CCSc1nn([C@@H]2O[C@H](COS(N)(=O)=O)[C@@H](O)[C@@H]2F)c2ncnc(N)c12` [Compound I-104, [(2R,3R,4S,5R)-5-(4-amino-3-{[2-(diethylamino)ethyl]sulfanyl}-1H-pyrazolo[3,4-d]pyrimidin-1-yl)-4-fluoro-3-hydroxytetrahydrofuran-2-yl]methyl sulfamate], the IC50 is 100 to 500 nM and the inhibition at 0.111 µM is 38%.
With `COc1nn([C@@H]2O[C@H](COS(N)(=O)=O)[C@@H](O)[C@@H]2F)c2ncnc(N)c12` [Compound I-105, [(2R,3R,4S,5R)-5-(4-amino-3-methoxy-1H-pyrazolo[3,4-d]pyrimidin-1-yl)-4-fluoro-3-hydroxytetrahydrofuran-2-yl]methyl Sulfamate], the IC50 is 100 to 500 nM and the inhibition at 0.123 µM came out at 42%.
The like results for `Nc1ncnc2c1c(Sc1cccc(Cl)c1)nn2[C@@H]1O[C@H](COS(N)(=O)=O)[C@@H](O)[C@@H]1F` [Compound I-106, [(2R,3R,4S,5R)-5-{4-amino-3-[(3-chlorophenyl)sulfanyl]-1H-pyrazolo[3,4-d]pyrimidin-1-yl}-4-fluoro-3-hydroxytetrahydrofuran-2-yl]methyl Sulfamate] were, in that order, 20 to 50 nM and 78%.
Regarding `COc1cccc(Sc2nn([C@@H]3O[C@H](COS(N)(=O)=O)[C@@H](O)[C@@H]3F)c3ncnc(N)c23)n1` [Compound I-107, [(2R,3R,4S,5R)-5-{4-amino-3-[(6-methoxypyridin-2-yl)sulfanyl]-1H-pyrazolo[3,4-d]pyrimidin-1-yl}-4-fluoro-3-hydroxytetrahydrofuran-2-yl]methyl sulfamate], the IC50 was 50 to 100 nM and the inhibition at 0.111 µM came to 61%.
`Nc1ncnc2c1c(C1CC1)nn2[C@@H]1O[C@H](COS(N)(=O)=O)[C@@H](O)[C@@H]1F` [Compound I-108, [(2R,3R,4S,5R)-5-(4-amino-3-cyclopropyl-1H-pyrazolo[3,4-d]pyrimidin-1-yl)-4-fluoro-3-hydroxytetrahydrofuran-2-yl]methyl sulfamate]: the IC50 was above 500 nM and the inhibition at 0.111 µM came out at 19%.
`Nc1ncnc2c1c(Sc1ccccc1F)nn2[C@@H]1O[C@H](COS(N)(=O)=O)[C@@H](O)[C@@H]1F` [Compound I-109, [(2R,3R,4S,5R)-5-{4-amino-3-[(2-fluorophenyl)sulfanyl]-1H-pyrazolo[3,4-d]pyrimidin-1-yl}-4-fluoro-3-hydroxytetrahydrofuran-2-yl]methyl sulfamate]: the IC50 lay within 20 to 50 nM and the inhibition at 0.111 µM worked out at 82%.
As for `Cc1cc(Sc2nn([C@@H]3O[C@H](COS(N)(=O)=O)[C@@H](O)[C@@H]3F)c3ncnc(N)c23)c(C)o1` [Compound I-110, [(2R,3R,4S,5R)-5-{4-amino-3-[(2,5-dimethyl-3-furyl)sulfanyl]-1H-pyrazolo[3,4-d]pyrimidin-1-yl}-4-fluoro-3-hydroxytetrahydrofuran-2-yl]methyl sulfamate], the IC50 was in the range of 50 to 100 nM and the inhibition at 0.111 µM worked out at 56%.
For the compound `Nc1ncnc2c1c(Sc1ccc([N+](=O)[O-])cn1)nn2[C@@H]1O[C@H](COS(N)(=O)=O)[C@@H](O)[C@@H]1F` [Compound I-111, [(2R,3R,4S,5R)-5-{4-amino-3-[(5-nitropyridin-2-yl)sulfanyl]-1H-pyrazolo[3,4-d]pyrimidin-1-yl}-4-fluoro-3-hydroxytetrahydrofuran-2-yl]methyl sulfamate], the IC50 fell in the range of 20 to 50 nM and the inhibition at 0.111 µM is 73%.
As to `Cn1ccnc1CSc1nn([C@@H]2O[C@H](COS(N)(=O)=O)[C@@H](O)[C@@H]2F)c2ncnc(N)c12` [Compound I-112, [(2R,3R,4S,5R)-5-(4-amino-3-{[(1-methyl-1H-imidazol-2-yl)methyl]sulfanyl}-1H-pyrazolo[3,4-d]pyrimidin-1-yl)-4-fluoro-3-hydroxytetrahydrofuran-2-yl]methyl sulfamate], the IC50 was 100 to 500 nM and the inhibition at 0.111 µM was 44%.
As for `Nc1ncnc2c1c(Sc1ccccn1)nn2[C@@H]1O[C@H](COS(N)(=O)=O)[C@@H](O)[C@@H]1F` [Compound I-113, {(2R,3R,4S,5R)-5-[4-amino-3-(pyridin-2-ylsulfanyl)-1H-pyrazolo[3,4-d]pyrimidin-1-yl]-4-fluoro-3-hydroxytetrahydrofuran-2-yl}methyl sulfamate], the IC50 was below 20 nM and the inhibition at 0.111 µM came to 89%.
Taken in the same sequence, the figures for `Cc1ccnc(Sc2nn([C@@H]3O[C@H](COS(N)(=O)=O)[C@@H](O)[C@@H]3F)c3ncnc(N)c23)c1` [Compound I-114, [(2R,3R,4S,5R)-5-{4-amino-3-[(4-methylpyridin-2-yl)sulfanyl]-1H-pyrazolo[3,4-d]pyrimidin-1-yl}-4-fluoro-3-hydroxytetrahydrofuran-2-yl]methyl sulfamate] were below 20 nM and 90%.
As for `CSc1nn([C@@H]2O[C@H](COS(N)(=O)=O)[C@@H](O)[C@@H]2F)c2ncnc(N)c12` [Compound I-115, {(2R,3R,4S,5R)-5-[4-amino-3-(methylsulfanyl)-1H-pyrazolo[3,4-d]pyrimidin-1-yl]-4-fluoro-3-hydroxytetrahydrofuran-2-yl}methyl Sulfamate], the IC50 lay in the range of 20 to 50 nM and the inhibition at 0.123 µM worked out at 73%.
For `Nc1ncnc2c1c(Sc1cccc(F)c1)nn2[C@@H]1O[C@H](COS(N)(=O)=O)[C@@H](O)[C@@H]1F` [Compound I-116, [(2R,3R,4S,5R)-5-{4-amino-3-[(3-fluorophenyl)sulfanyl]-1H-pyrazolo[3,4-d]pyrimidin-1-yl}-4-fluoro-3-hydroxytetrahydrofuran-2-yl]methyl sulfamate], the IC50 is 20 to 50 nM and the inhibition at 0.111 µM was determined as 75%.
As to `Nc1ncnc2c1c(Sc1cc(C(F)(F)F)ccn1)nn2[C@@H]1O[C@H](COS(N)(=O)=O)[C@@H](O)[C@@H]1F` [Compound I-117, [(2R,3R,4S,5R)-5-(4-amino-3-{[4-(trifluoromethyl)pyridin-2-yl]sulfanyl}-1H-pyrazolo[3,4-d]pyrimidin-1-yl)-4-fluoro-3-hydroxytetrahydrofuran-2-yl]methyl sulfamate], the IC50 lay within 20 to 50 nM and the inhibition at 0.111 µM turned out to be 83%.
As for `CC(C)(C)Sc1nn([C@@H]2O[C@H](COS(N)(=O)=O)[C@@H](O)[C@@H]2F)c2ncnc(N)c12` [Compound I-118, {(2R,3R,4S,5R)-5-[4-amino-3-(tert-butylsulfanyl)-1H-pyrazolo[3,4-d]pyrimidin-1-yl]-4-fluoro-3-hydroxytetrahydrofuran-2-yl}methyl sulfamate], the IC50 is below 20 nM and the inhibition at 0.111 µM worked out at 86%.
